Measurements: patent US8790675B2, “Biocide compositions comprising carbamates” (priority 2009, dated 2014)

Assay: Solubility of biocides in solvents at 25° C.
Conditions: for Solubility of biocides: Tebucanozole: Tebucanozole dissolved in the solvent, 25° C.
Protocol: Solubility of two fungicides, one herbicide and two insecticides in different dialkyl amides at 25° C. was tested.

Structure (SMILES): CN(C)C(=O)OCCO [Example 5]
- able to dissolve or disperse a wide range of biocides better than solvents known from the state of the art (wide range of biocides, versus state-of-the-art solvents): 20%

Structure (SMILES): CCCNC(=O)OCCO [Example 8]
- Solubility of biocides: Tebucanozole: 23 % b.w.

Structure (SMILES): CCCCNC(=O)OCCO [Example 7]
- Solubility of biocides: Tebucanozole: 20 % b.w.
